Measurements from patent US8957093B2, “N-biphenylmethylindole modulators of PPARG” (The Scripps Research Institute, priority 2011, dated 2015).
pEC50: −log10 of the molar value. Read-outs that look alike come from different tables or passages of the source. Values belong to the compound of their own block, whether it stands above or below them.

Key:
[1] = biological target: Gal-4-PPAR (human PPAR LBD fused to GAL4 DNA-binding domain) (Homo sapiens (Human), UniProt P37231); experiment: GAL4-PPARG LBD / UAS-luciferase transactivation assay in HEK 293T cells; type: cell-based; settings: for activation at 10 µM: HEK-293T, 18 h, read-out: % transactivation at 10 μM (GAL4); for EC50: GAL4 transactivation, read-out: EC50 (nM) GAL4
GST-PPARG-LBD = GST-PPARG-LBD (Homo sapiens (Human), UniProt P37231); experiment: Lanthascreen PPARG competitive binding assay (Invitrogen, TR-FRET); settings: NA = not active, inc = incomplete curve; for IC50: read-out: IC50 (nM) Lantha
Protocol: Lanthascreen PPARG Competitive Binding Assay (Invitrogen)
The assay was performed according to manufacturer protocol. A mixture of […], 5 nM Tb-GST-antibody, 5 nM Fluormone Pan-PPAR Green, and serial dilutions of the experimental compound, beginning at 10 μM downwards, was added to wells of black 384-well low-volume plates (Greiner) to a total volume of 18 μL. All dilutions were made in TR-FRET assay buffer C. DMSO at 2% final concentration was used as a no-ligand control. Experiment was performed in triplicate, and incubated for 2 hours in the dark prior to assay read in Perkin Elmer ViewLux ultra HTS microplate reader. FRET signal was measured by excitation at 340 nm and emission at 520 nm for fluorescein and 490 nm for terbium. Fold change over DMSO was calculated using GraphPad Prism Software (La Jolla, Calif.) by calculating 520 nm/490 nm ratio. Graphs were plotted as fold change of FRET signal for compound treatment over DMSO-only control.

[2] = Lanthascreen competitive binding
[3] = HEK 293T cells, NA = not active
[4] = Lanthascreen PPARG competitive binding

Sequence of Gal-4-PPAR (human PPAR LBD fused to GAL4 DNA-binding domain) (P37231 238-503): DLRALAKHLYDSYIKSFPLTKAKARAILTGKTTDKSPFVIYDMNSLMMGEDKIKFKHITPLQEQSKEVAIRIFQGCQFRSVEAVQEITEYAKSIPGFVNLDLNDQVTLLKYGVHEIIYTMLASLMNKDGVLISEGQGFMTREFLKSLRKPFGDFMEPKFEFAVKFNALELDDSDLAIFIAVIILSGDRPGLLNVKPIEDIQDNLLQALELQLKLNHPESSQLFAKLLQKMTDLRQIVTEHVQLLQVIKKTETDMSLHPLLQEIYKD
Sequence of GST-PPARG-LBD (P37231 238-503): as above

SMILES: Cc1c(C)n(Cc2ccc(-c3ccccc3-c3nn[nH]n3)cc2)c2ccc(C(=O)N[C@@H](C)c3cccc(C(C)C)c3)cc12 [Example 243, (S)-1-((2′-(2H-tetrazol-5-yl)-[1,1′-biphenyl]-4-yl)methyl)-N-(1-(3-isopropylphenyl)ethyl)-2,3-dimethyl-1H-indole-5-carboxamide]
- pEC50 [1]: 5.80
- activation at 10 µM [1]: 10%
- IC50 (GST-PPARG-LBD; [2]): 22 nM

SMILES: Cc1c(C)n(Cc2ccc(-c3ccccc3C(=O)O)cc2)c2ccc(C(=O)N[C@H](C)c3ccccc3C(F)(F)F)cc12 [Example 207, (R)-4′-((2,3-dimethyl-5-((1-(2-(trifluoromethyl)phenyl)ethyl)carbamoyl)-1H-indol-1-yl)methyl)-[1,1′-biphenyl]-2-carboxylic acid]
- EC50 [1, 3]: 629 nM
- activation at 10 µM [1]: 20%
- IC50 (GST-PPARG-LBD; [2]): 1 nM

SMILES: Cc1c(C)n(Cc2ccc(-c3ccccc3C(=O)O)cc2)c2ccc(C(=O)N[C@@H](C)c3ccc(C(F)(F)F)cc3F)cc12 [Example 298, (S)-4′-((5-((1-(2-Fluoro-4-(trifluoromethyl)phenyl)ethyl)carbamoyl)-2,3-dimethyl-1H-indol-1-yl)methyl)-[1,1′-biphenyl]-2-carboxylic acid]
- EC50 [1]: 448 nM
- activation at 10 µM [1]: 10%
- IC50 (GST-PPARG-LBD; [4]): 11 nM

SMILES: Cc1c(C)n(Cc2ccc(-c3ccccc3C(=O)O)cc2)c2ccc(C(=O)N[C@@H](C)c3ccc(Cl)c(Cl)c3)cc12 [Example 220, (S)-4′-((5-((1-(3,4-dichlorophenyl)ethyl)carbamoyl)-2,3-dimethyl-1H-indol-1-yl)methyl)-[1,1′-biphenyl]-2-carboxylic acid]
- EC50 [1, 3]: 142 nM
- activation at 10 µM [1]: 30%
- IC50 (GST-PPARG-LBD; [2]): 10 nM

SMILES: COc1ccc(CNC(=O)c2ccc3c(c2)c(C)c(C)n3Cc2ccc(-c3ccccc3C(=O)O)cc2)cc1 [Example 104, 4′-((5-(4-methoxybenzylcarbamoyl)-2,3-dimethyl-1H-indol-1-yl)methyl)biphenyl-2-carboxylic acid]
- IC50 (GST-PPARG-LBD; [2]): 7 nM

SMILES: C[C@H](NC(=O)c1ccc2c(ccn2Cc2ccc(-c3cccc(N)c3)cc2)c1)c1ccc([N+](=O)[O-])cc1 [Example 52, (S)-1-((3′-Amino-[1,1′-biphenyl]-4-yl)methyl)-N-(1-(4-nitrophenyl)ethyl)-1H-indole-5-carboxamide]
- IC50 (GST-PPARG-LBD; [2]): > 1000 nM

SMILES: Cc1c(C)n(Cc2ccc(-c3ccccc3C#N)cc2)c2ccc(C(=O)N[C@@H](C)c3ccc(OC(C)C)cc3)cc12 [Example 278, (S)-1-((2′-cyano-[1,1′-biphenyl]-4-yl)methyl)-N-(1-(4-isopropoxyphenyl)ethyl)-2,3-dimethyl-1H-indole-5-carboxamide]
- IC50 (GST-PPARG-LBD; [4]): 808 nM

SMILES: Cc1c(C)n(Cc2ccc(-c3ccccc3C(=O)O)cc2)c2ccc(C(=O)N[C@@H](C)c3cc(Cl)ccn3)cc12 [Example 265, (S)-4′-((5-((1-(4-chloropyridin-2-yl)ethyl)carbamoyl)-2,3-dimethyl-1H-indol-1-yl)methyl)-[1,1′-biphenyl]-2-carboxylic acid]
- IC50 (GST-PPARG-LBD; [2]): 4 nM

SMILES: Cc1c(C)n(Cc2ccc(-c3ccccc3S(N)(=O)=O)cc2)c2ccc(C(=O)N[C@@H](C)c3cccc(C(C)C)c3)cc12 [Example 247, (S)—N-(1-(3-isopropylphenyl)ethyl)-2,3-dimethyl-1-((2′-sulfamoyl-[1,1′-biphenyl]-4-yl)methyl)-1H-indole-5-carboxamide]
- IC50 (GST-PPARG-LBD; [2]): > 1000 nM

- IC50 (nM) Lantha (GST-PPARG-LBD; [4]): inc
SMILES: Cc1c(C)n(Cc2ccc(-c3ccccc3C#N)cc2)c2ccc(C(=O)N[C@@H](C)c3ccc(OC(F)(F)F)cc3)cc12 [Example 279, (S)-1-((2′-cyano-[1,1′-biphenyl]-4-yl)methyl)-2,3-dimethyl-N-(1-(4-(trifluoromethoxy)phenyl)ethyl)-1H-indole-5-carboxamide]

- IC50 (nM) Lantha (GST-PPARG-LBD; [2]): inc
SMILES: Cc1c(C)n(Cc2ccc(-c3ccccc3C#N)cc2)c2ccc(C(=O)N[C@@H](C)c3cccc(C(C)C)c3)cc12 [Example 242, (S)-1-((2′-cyano-[1,1′-biphenyl]-4-yl)methyl)-N-(1-(3-isopropylphenyl)ethyl)-2,3-dimethyl-1H-indole-5-carboxamide]

SMILES: Cc1c(C)n(Cc2ccc(-c3ccccc3C(=O)NC3CC3)cc2)c2ccc(C(=O)N[C@@H](C)c3cccc(C(C)C)c3)cc12 [Example 305, (S)-1-((2′-(Cyclopropylcarbamoyl)-[1,1′-biphenyl]-4-yl)methyl)-N-(1-(3-isopropylphenyl)ethyl)-2,3-dimethyl-1H-indole-5-carboxamide]
- IC50 (GST-PPARG-LBD; [4]): 94 nM

SMILES: C[C@H](NC(=O)c1ccc2c(ccn2Cc2ccc(-c3cccc(Cl)c3)cc2)c1)c1ccc([N+](=O)[O-])cc1 [Example 58, (S)-1-((3′-Chloro-[1,1′-biphenyl]-4-yl)methyl)-N-(1-(4-nitrophenyl)ethyl)-1H-indole-5-carboxamide]
- IC50 (GST-PPARG-LBD; [2]): > 1000 nM

SMILES: Cc1c(C)n(Cc2ccc(-c3ccccc3S(=O)(=O)NC(C)(C)C)cc2)c2ccc(C(=O)N[C@@H](C)c3cccc(C(C)C)c3)cc12 [Example 246, (S)-1-((2′-(N-(tert-butyl)sulfamoyl)-[1,1′-biphenyl]-4-yl)methyl)-N-(1-(3-isopropylphenyl)ethyl)-2,3-dimethyl-1H-indole-5-carboxamide]
- IC50 (GST-PPARG-LBD; [2]): > 1000 nM

SMILES: CC[C@H](NC(=O)c1ccc2c(ccn2Cc2ccccc2-c2ccc(C(=O)O)cc2)c1)c1ccccc1 [Example 189, (S)-2′-((5-((1-phenylpropyl)carbamoyl)-1H-indol-1-yl)methyl)-[1,1′-biphenyl]-4-carboxylic acid]
- IC50 (GST-PPARG-LBD; [2]): 100 nM

SMILES: Cc1cn(Cc2ccc(-c3ccccc3C(=O)O)cc2)c2ccc(C(=O)N[C@@H](C)c3ccc(Br)cc3)cc12 [Example 132, (S)-4′-((5-((1-(4-Bromophenyl)ethyl)carbamoyl)-3-methyl-1H-indol-1-yl)methyl)-[1,1′-biphenyl]-2-carboxylic acid]
- IC50 (GST-PPARG-LBD; [2]): 24 nM

SMILES: Cc1c(C)n(Cc2ccc(-c3ccccc3C(=O)O)cc2)c2ccc(C(=O)NCc3cccc(CN)c3)cc12 [Example 82, 4′-((5-(3-(aminomethyl)benzylcarbamoyl)-2,3-dimethyl-1H-indol-1-yl)methyl)biphenyl-2-carboxylic acid]
- IC50 (GST-PPARG-LBD; [2]): > 1000 nM

SMILES: C[C@H](NC(=O)c1ccc2c(ccn2Cc2ccc(-c3ccccc3)cc2)c1)c1ccc([N+](=O)[O-])cc1 [Example 38, (S)-1-([1,1′-Biphenyl]-4-ylmethyl)-N-(1-(4-nitrophenyl)ethyl)-1H-indole-5-carboxamide]
- IC50 (GST-PPARG-LBD; [2]): > 1000 nM

- IC50 (nM) Lantha (GST-PPARG-LBD; [4]): inc
SMILES: Cc1c(C)n(Cc2ccc(-c3ccccc3C#N)cc2)c2ccc(C(=O)N[C@@H](C)c3ccc(Cl)c(Cl)c3)cc12 [Example 290, (S)-1-((2′-cyano-[1,1′-biphenyl]-4-yl)methyl)-N-(1-(3,4-dichlorophenyl)ethyl)-2,3-dimethyl-1H-indole-5-carboxamide]

- IC50 (nM) Lantha (GST-PPARG-LBD; [4]): inc
SMILES: Cc1c(C)n(Cc2ccc(-c3ccccc3C#N)cc2)c2ccc(C(=O)N[C@@H](C)c3ccccc3)cc12 [Example 291, (S)-1-((2′-cyano-[1,1′-biphenyl]-4-yl)methyl)-2,3-dimethyl-N-(1-phenylethyl)-1H-indole-5-carboxamide]

- IC50 (nM) Lantha (GST-PPARG-LBD; [4]): inc
SMILES: COc1ccc([C@H](C)NC(=O)c2ccc3c(c2)c(C)c(C)n3Cc2ccc(-c3ccccc3C#N)cc2)cc1 [Example 285, (S)-1-((2′-cyano-[1,1′-biphenyl]-4-yl)methyl)-N-(1-(4-methoxyphenyl)ethyl)-2,3-dimethyl-1H-indole-5-carboxamide]

SMILES: CC(=O)NS(=O)(=O)c1ccccc1-c1ccc(Cn2c(C)c(C)c3cc(C(=O)N[C@@H](C)c4cccc(C(C)C)c4)ccc32)cc1 [Example 248, (S)-1-((2′-(N-acetylsulfamoyl)-[1,1′-biphenyl]-4-yl)methyl)-N-(1-(3-isopropylphenyl)ethyl)-2,3-dimethyl-1H-indole-5-carboxamide]
- IC50 (GST-PPARG-LBD; [2]): > 1000 nM

- IC50 (nM) Lantha (GST-PPARG-LBD; [4]): inc
SMILES: Cc1c(C)n(Cc2ccc(-c3ccccc3C#N)cc2)c2ccc(C(=O)N[C@@H](C)c3ccc(Cl)cc3)cc12 [Example 283, (S)—N-(1-(4-chlorophenyl)ethyl)-1-((2′-cyano-[1,1′-biphenyl]-4-yl)methyl)-2,3-dimethyl-1H-indole-5-carboxamide]

SMILES: C[C@H](NC(=O)c1ccc2c(ccn2Cc2ccc(-c3ccccc3C(=O)OC(C)(C)C)cc2)c1)c1ccc([N+](=O)[O-])cc1 [Example 55, (S)-tert-Butyl 4′-((5-((1-(4-nitrophenyl)ethyl)carbamoyl)-1H-indol-1-yl)methyl)-[1,1′-biphenyl]-2-carboxylate]
- IC50 (GST-PPARG-LBD; [2]): > 1000 nM

- IC50 (nM) Lantha (GST-PPARG-LBD; [2]): ^2inc^
SMILES: Cc1c(C)n(Cc2ccc(-c3ccccc3C#N)cc2)c2ccc(C(=O)N[C@@H](C)c3ccc(C(C)(C)C)cc3)cc12 [Example 184, (S)—N-(1-(4-(tert-butyl)phenyl)ethyl)-1-((2′-cyano-[1,1′-biphenyl]-4-yl)methyl)-2,3-dimethyl-1H-indole-5-carboxamide]

- IC50 (nM) Lantha (GST-PPARG-LBD; [4]): inc
SMILES: Cc1c(C)n(Cc2ccc(-c3ccccc3C#N)cc2)c2ccc(C(=O)N[C@@H](C)c3cccc(F)c3)cc12 [Example 293, (S)-1-((2′-cyano-[1,1′-biphenyl]-4-yl)methyl)-N-(1-(3-fluorophenyl)ethyl)-2,3-dimethyl-1H-indole-5-carboxamide]
